From PubChem BioAssay AID489041 (Sanford-Burnham Center for Chemical Genomics, 2010) come the findings set out here.

The source made the active and inactive calls. No rule for the calls is given here. A value given as a limit tells only on which side of the number the result lay.

By IC50 is commonly meant the midpoint of a concentration-inhibition curve.

This test concerns HEK-293T NF-kB luciferase reporter counterscreen, luminescence. Kind of test: inhibitors of HEK-293T NF-kB luciferase – HEK-293T cells, luminescence, counter-screen for T-cell antigen receptor NF-kB inhibitors, dose response (AID 489041). On the technique in general: A counterscreen serves to expose hits that act by an unwanted route or on another target.
For `CCOC(=O)Nc1nc(-c2ccccc2)c(C(=O)c2ccc(Cl)cc2)s1`, the IC50 is 3.06 µM. Consider `COc1ccc(OC)c(Nc2cc(-c3ccccc3)nc(N)n2)c1`, for which the IC50 is 3.41 µM. `COc1cc([C@@H]2c3cc4c(cc3[C@H](O)[C@H]3COC(=O)[C@H]23)OCO4)cc(OC)c1OC`: the IC50 was < 0.16 µM. The figure for `O=C(Nc1ncc(Cc2ccc(SC(F)F)cc2)s1)c1ccc(OC(F)F)cc1` is 3.66 µM.

As for `COc1ccccc1N=C(C)C1=C(O)CC(c2ccccc2)CC1=O` (stereo not drawn), the IC50 was 0.78 µM. As for `CCOc1ccc(S(=O)(=O)NCc2ccccn2)cc1NC(=O)c1ccccc1F`, the IC50 is > 80 µM (inactive). The figure for `CCc1ccc(/C=N/NC(=O)c2cc(C3CC3)nc3ccccc23)s1` is 10.3 µM.

For the compound `c1cc2c(cc1C1=NNC(=NC3CC3)SC1)OCCO2`, the IC50 is 2.33 µM. For `CCN(CC)c1ccc(-c2nn3c(-c4ccccc4OC)nnc3s2)cc1` the value was 1.87 µM; for `COc1ccc(OCC(=O)Nc2ccccc2N2CCCCC2)cc1`, 12 µM. Turning to `COc1ccc(C(=O)N2CCN(c3ccc([N+](=O)[O-])c(NCCc4ccc(OC)c(OC)c4)c3)CC2)cc1`, the IC50 was 0.31 µM.

Turning to `COc1ccc(/C=C/C(=O)c2cc(F)ccc2OC(=O)c2ccccc2)cc1OC`, the IC50 was < 0.16 µM. Take `CCN(CC)c1ccc2nc3ccccc3[n+](CC)c2c1`: the IC50 is 2.01 µM. For the compound `COc1ccc(-c2c(C#N)c(N)nc3c2CCc2ccccc2-3)cc1OC`, the IC50 is 8.28 µM.

`Cc1ccc(C(=O)Nc2cc3ccccc3oc2=O)cc1`: the IC50 is 0.94 µM. As to `CC1=Nc2ccccc2/C1=C\c1sc(Nc2ccc(C)cc2)nc1O`, the IC50 was 3.6 µM.

For the compound `CCCCCc1ccc(OCCCC[n+]2ccc(C)cc2)c(CCCCC)c1`, the IC50 is 5.84 µM. For `Cc1ccc(N2C(=O)c3cccc4c(N)ccc(c34)C2=O)c2cccnc12` the value was < 0.16 µM; for `CCC(O)C1CCN(C(=O)c2cc(COc3ccc4ncccc4c3)on2)CC1` (stereo not drawn), 1.72 µM; for `CC(C)(C)OC(=O)NCCCCCc1cn(CC(=O)NCCCCCCCCCCC(=O)N2CCN(C(=O)OC(C)(C)C)CC2)nn1`, 0.22 µM.

As to `Cc1ccc(C(=O)O/N=C(\N)c2ccccn2)c(C)c1`, the IC50 is 0.53 µM.

As to `CC(C)Oc1ccccc1C1CC(=O)Nc2cc3c(cc21)OCO3` (stereo not drawn), the IC50 was 3.01 µM. On to `CCCCN1/C(=C/c2ccc3ccccc3[n+]2CC)Sc2ccccc21`, for which the IC50 is 2.02 µM. Take `O=c1cc(-c2ccccc2)[nH]c2ccccc12`: the IC50 was 15.5 µM. The figure for `COc1cccc(-c2cc(=O)c3cc(NC(=O)c4ccc(N(C)C)cc4)ccc3[nH]2)c1` is > 80 µM (inactive).

On to `Cn1c(SC2=CS(=O)(=O)c3ccccc32)nc2ccccc21`, for which the IC50 was 12.2 µM. The figure for `CCOc1cc(C(=O)N/N=C/C(Br)=C/c2ccccc2)cc(OCC)c1OCC` is 1.11 µM.

As to `CC1C/C(=C/c2ccncc2)C(=O)/C(=C/c2ccncc2)C1` (stereo not drawn), the IC50 was 5.7 µM. For `Cc1c(C(=O)N/N=C/c2ccc(Cl)cc2)[nH]c2ccc(Cl)cc12` the value was 1.95 µM.

Turning to `COc1ccc(-c2csc(NC(=O)C3CCN(c4ncnc5sc(C)c(C)c45)CC3)n2)cc1OC`, the IC50 is 13.1 µM. For `C=CCn1c(SCc2c(C)noc2C)nc2ccccc2c1=O` the value was 2.82 µM; for `COc1cc(C(=O)N/N=C/c2cc([N+](=O)[O-])cs2)cc(OC)c1OC`, 1.91 µM. For `CCCCOc1ccccc1C1CC(=O)NC2=C1C(=O)CCC2` (stereo not drawn), the IC50 is 12.8 µM. For `COc1ccc(S(=O)(=O)Nc2cccc(-c3ccc4nncn4n3)c2)cc1F` the value was 49.2 µM (inactive); for `CCOC(=O)c1[nH]c(C)c(C(=O)c2cc(F)ccc2F)c1C`, 6.54 µM. Turning to `Cc1nc(Nc2nc3c(c(=O)[nH]2)CCC3)nc2ccccc12`, the IC50 is 40.1 µM (inactive). In the case of `Cc1cc(O)c2c(c1O)C(=O)[C@]13C(=C2O)C(=O)[C@@H]2[C@@H](O)[C@H]1[C@@H]1[C@H](O)[C@H]3C(=O)C3=C(O)c4c(O)cc(C)c(O)c4C(=O)[C@]312`, the IC50 was 11.4 µM.

Take `COc1cccc(CN(C)C(=O)c2ccc(OCC(=O)Nc3cccc(C(F)(F)F)c3)c(OC)c2)c1`: the IC50 is 1.88 µM. For `COc1cccc(-c2cc(C(=O)Nc3cc(C)n(Cc4ccc(Cl)cc4)n3)no2)c1` the value was 4.24 µM. For `Cc1noc(C)c1CSc1nc2ccccc2c(=O)n1-c1ccccc1` the value was 9.04 µM; for `CCOc1ccc(Nc2cc(C)nc(-n3nc(C)cc3C)n2)cc1`, 3.93 µM; for `O=C(N/N=C/c1ccccc1Cl)c1[nH]c2ccc(Br)cc2c1-c1ccccc1`, 38.3 µM (inactive). For `Cc1ccc2[nH]c3c(c2c1)CCCC3NC(=O)CCl` (stereo not drawn) the value was 7.68 µM; for `Cc1cc(NC(=O)CSc2nc3c(sc4ccccc43)c(=O)n2CCCN2CCOCC2)n[nH]1`, 1.02 µM. In the case of `Cc1cc(C)c2nc(C)cc(N/N=C/c3ccc(O)cc3)c2c1`, the IC50 is 12.9 µM. `CC(=O)NC(c1ccc(C(C)C)cc1)c1ccc2cccnc2c1O` (stereo not drawn): the IC50 was 40.7 µM (inactive). For `CCOc1ccc(S(=O)(=O)NCc2ccccn2)cc1NC(=O)c1ccccc1` the value was 40.7 µM (inactive). As to `COc1cc2nc(CN3CC=C(c4ccccc4)CC3)[nH]c(=O)c2cc1OC`, the IC50 is 2.5 µM. On to `COC(=O)c1cn(NC(=O)c2cc([N+](=O)[O-])ccc2F)c(=O)c2ccccc12`, for which the IC50 is 4.34 µM. The figure for `O=C(CSc1nnc(Cn2nnc3ccccc32)o1)N(Cc1ccc(F)cc1)c1ccccc1` is 0.94 µM; for `COc1cc2c(c(OC)c1OC)-c1ccc(OC)c(=O)cc1[C@@H](N(C)CC#CCO)CC2` it is 0.56 µM; for `O=C(c1ccc(CS(=O)c2ccccc2Cl)o1)N1CCN(c2ccccn2)CC1` (stereo not drawn) it is 18.8 µM. In the case of `Cc1nn(-c2ccccc2Cl)c(Cl)c1/C=N/Nc1nc2ccccc2s1`, the IC50 is < 0.16 µM. The figure for `CCCOc1ccccc1C1CC(=O)Nc2cc3c(cc21)OCO3` (stereo not drawn) is 2.25 µM; for `COc1cc(-c2noc(C)c2C#Cc2ccsc2)cc(OC)c1OC` it is 4.06 µM. The figure for `O=C(Nc1ccccc1Cl)/C(Cl)=C(\Cl)S(=O)c1ccccc1` (stereo not drawn) is 9.87 µM; for `COC(=O)c1ccccc1NC1=C/C(=N\S(=O)(=O)c2cccs2)c2ccccc2C1=O` it is 1.04 µM; for `CC1(C)CC(N2CCN(C(c3ccccc3)c3ccccc3)CC2)=CC(=[N+]2CCCCC2)C1` it is 1.25 µM. As to `CC(C)(C)c1cc(C=C(C#N)C#N)cc(C(C)(C)C)c1O`, the IC50 was 13.1 µM. With `COc1ccc([C@H]2CC(=O)C=C(c3ccc(OC)cc3OC)C2)cc1`, the IC50 was 9.99 µM. For the compound `CCOc1ccc(N(C)S(=O)(=O)c2ccc(-c3cc(C)no3)s2)cc1`, the IC50 is 7.17 µM. The figure for `N#Cc1ccc(-c2cccs2)nc1SCc1cccnc1` is 0.94 µM; for `O=C(NNc1ccnc2cc(Cl)ccc12)C1CCCCC1` it is 0.33 µM. As for `COc1cccc(-c2cc(=O)c3cc(NC(=O)c4ccccc4)ccc3[nH]2)c1`, the IC50 is > 80 µM (inactive). The figure for `COc1ccccc1CNS(=O)(=O)c1ccc(-c2cc(C)no2)cc1` is 8.48 µM; for `COC(=O)Nc1ccc(S(=O)(=O)N2c3ccccc3CCC2C)cc1` (stereo not drawn) it is 13.1 µM. As to `CCc1cc(C(=O)NC2CCCc3c2cnn3-c2cccc(C)c2C)n(C)n1` (stereo not drawn), the IC50 is < 0.16 µM. The figure for `Cc1ccc2c(c1)C=CC(C#N)N2C(=O)c1ccccc1` (stereo not drawn) is 29.1 µM (inactive).

As to `CCOC(=O)N1CCN(C(=O)C2CCCN(Cc3nc(-c4ccc(Cl)cc4)oc3C)C2)CC1` (stereo not drawn), the IC50 was 3 µM. The figure for `CCCCCOC(=O)c1[nH]c2c(c1C)C(=O)CC(c1ccco1)C2` (stereo not drawn) is 0.41 µM; for `COc1ccc(C)cc1NS(=O)(=O)c1ccc(-c2cnc(C3CC3)o2)cc1` it is 0.84 µM; for `Cc1cc(-c2ccc(C(C)C)c(S(=O)(=O)N3CCN(c4ccccc4)CC3)c2)on1` it is 22 µM (inactive). For `O=C(c1cc(-c2ccncc2)nc2c(Cl)cccc12)N1CCN(c2ccccc2F)CC1` the value was 12.5 µM. Take `COc1ccc(OC)c(C2CC(=O)c3c([nH]c(C(=O)OC(C)C)c3C)C2)c1` (stereo not drawn): the IC50 was 2.29 µM. On to `CC(C)c1oc(=O)cc2c1[C@@H](O)[C@H]1OC(=O)[C@@]3(C)CC[C@@H](O)[C@@]2(C)C13` (stereo partly drawn), for which the IC50 was 4.59 µM. With `CCOC(=O)C(C)Oc1cccc2c(=O)n(CC(=O)NCc3ccc(F)cc3)ccc12` (stereo not drawn), the IC50 was 9.67 µM. On to `Oc1ccc2ccccc2c1N=Nc1ccccn1`, for which the IC50 was > 80 µM (inactive). As to `COc1ccc(-c2ccc3oc(-c4ccc(OC)cc4)c(C#CCO)c3c2)cc1`, the IC50 is 14.2 µM. Regarding `COc1ccc([N+](=O)[O-])cc1Nc1c2ccccc2nc2ccccc12`, the IC50 is 1.38 µM. As to `COc1ccc(OC)c(-c2nnc3n2N=C(c2ccc(OC)c(OC4CCCC4)c2)CS3)c1`, the IC50 was 3.09 µM. Turning to `COC(=O)c1[nH]c2c(c1C)C(=O)CC(c1cccs1)C2` (stereo not drawn), the IC50 was 1.92 µM. The figure for `COc1ccc(C(=O)/C(C#N)=N/Nc2ccc([N+](=O)[O-])cc2)cc1` is 0.32 µM. For `NS(=O)(=O)c1ccc(Sc2nc3ccccc3s2)c([N+](=O)[O-])c1`, the IC50 is 7.35 µM.

For `CCO[C@@H]1OC(C(=O)NCc2nc3ccccc3[nH]2)=C[C@H](C(C)(C)C)[C@H]1CCCO`, the IC50 was 1.37 µM. Turning to `COc1ccc(S(=O)(=O)N2N=C(C)Oc3ccccc3C2=O)cc1`, the IC50 is 29.9 µM (inactive). As to `Cc1ccc(NC(=O)CSc2nc(-c3ccco3)cc(C(F)(F)F)n2)cc1C`, the IC50 was > 80 µM (inactive). For `Oc1ccc(Nc2nc3ccccc3nc2Nc2ccc(O)cc2)cc1` the value was 17.6 µM; for `Cc1ccc2[nH]c(-c3cccc(F)c3)cc(=O)c2c1`, > 80 µM (inactive); for `CCC1CCCCN1C(=O)c1cc(COc2ccc3ncccc3c2)on1` (stereo not drawn), 2.44 µM.

As to `CCOC(=O)c1[nH]c2c(c1C)C(=O)CC(c1ccco1)C2` (stereo not drawn), the IC50 is 4.38 µM. For `COc1cc([C@@H]2c3cc4c(cc3[C@@H](OC)[C@H]3COC(=O)[C@H]23)OCO4)cc(OC)c1O` the value was > 80 µM (inactive). Turning to `Cc1csc2ncnc(NC3CCN(Cc4ccccc4)CC3)c12`, the 50% inhibitory concentration (IC50) was 2.22 µM. Take `CCOC(=O)/C=C/S(=O)(=O)c1ccc(NC(C)=O)cc1`: the IC50 was 20.1 µM (inactive).
